{"source": "patent US20170340905A1", "about": "“MACROCYCLIC KETONE AS MALODOR COUNTERACTING INGREDIENT” (Firmenich SA, priority 2014, published 2017)", "key": {"[1]": {"assay": "Sensory malodor reduction test, Sniffin' Sticks odor pens, bathroom malodor", "conditions": "for Average Perceived Overall Odor Intensity (APOOI) / Average Perceived Malodor Intensity (APMI): scale 0-10", "description": "(§1) The Compound 1, as defined above, was tested, using current sensory analysis methods, for its ability to reduce the perception of bathroom, tobacco, kitchen, pet and body malodors.\n(§2) In the following description, the test concentration of the malodor sample used in each case was selected so as to provide a perceived malodor intensity, when evaluated in Sniffin' Sticks odor pens as described below, that was approximately of the order of 6 units on the scale described under Section C below.\nBathroom malodor: 0.3% by weight in propylene glycol\n(§3) The test concentration of the Compound 1 used in each of the malodor reduction tests was selected so as to provide a perceived intensity, when evaluated in Sniffin' Sticks odor pens as described below, that was approximately of the order of 6 units on the scale described under Section C below. The concentration of Compound 1 that was perceived as comprising an odor intensity of about 6 when evaluated in Sniffin' Sticks odor pens was 16% by weight in propylene glycol.\n(§4) Stock solutions were prepared as follows: • Compound 1 32% by weight: 12.8 g of Compound 1 was mixed with 27.2 g of propylene glycol. • Bathroom malodor 0.6% by weight: 0.6 g of bathroom malodor was mixed with 99.4 g of propylene glycol. • Kitchen malodor 60% by weight: 12.0 g of kitchen malodor was mixed with 8.0 g of propylene glycol. • Body malodor 1% by weight: 1.0 g of body malodor was mixed with 99.0 g of propylene glycol. • Pet malodor 1% by weight: 1.0 g of pet malodor was mixed with 99.0 g of propylene glycol. • The tobacco malodor was used as is.\n(§5) Each sensory test comprised 3 samples: a malodor only sample; a test sample comprising a combination of […] and the test malodor; and, a Compound 1 only sample. The samples for the sensory tests were prepared as follows:\n(§6) Malodor only sample: in a separate beaker 3.0 g of malodor stock solution, was mixed with 3.0 g of propylene glycol. Once fully homogenized, 2.0 g of the resulting solution was applied to the absorbent fiber in the body of a Sniffin' Stick odor pen (origin: Burghart Messtechnik GmbH). The odor pen was immediately capped and allowed to equilibrate for 24 hours before use.\nas §6, with “Compound 1” for “Malodor”, “Compound 1” for “malodor”, “solution” for “solution,”\nas §6, with “Test samples:” for “Malodor only sample:”, “Compound 1” for “malodor”, “solution” for “solution,”, “malodor stock solution.” for “propylene glycol.”\n(§7) The samples were assessed by a panel of 19 trained panelists. By “trained panelists” we mean here individuals that had previously been screened for olfactive acuity and were experienced in rating the perfume and malodor intensity. Moreover, the panelists were prior acquainted with the malodor sample before carrying out the malodor reduction efficacy test.\n(§8) Each test comprised a malodor only sample, a Compound 1 only sample, and a test sample that comprised Compound 1 and the malodor. […]"}, "[2]": {"assay": "Sensory malodor reduction test, Sniffin' Sticks odor pens, kitchen malodor", "conditions": "for Average Perceived Malodor Intensity (APMI) / Average Perceived Overall Odor Intensity (APOOI): scale 0-10", "description": "as §1, §2\nKitchen malodor: 30% by weight in propylene glycol\nas §3, §4, §5, §6\nas §6, with “Compound 1” for “Malodor”, “Compound 1” for “malodor”, “solution” for “solution,”\nas §6, with “Test samples:” for “Malodor only sample:”, “Compound 1” for “malodor”, “solution” for “solution,”, “malodor stock solution.” for “propylene glycol.”\nas §7, §8"}, "[3]": {"assay": "Sensory malodor reduction test, Sniffin' Sticks odor pens, body malodor", "conditions": "for Average Perceived Malodor Intensity (APMI) / Average Perceived Overall Odor Intensity (APOOI): scale 0-10", "description": "as §1, §2\nBody malodor: 0.5% by weight in propylene glycol\nas §3, §4, §5, §6\nas §6, with “Compound 1” for “Malodor”, “Compound 1” for “malodor”, “solution” for “solution,”\nas §6, with “Test samples:” for “Malodor only sample:”, “Compound 1” for “malodor”, “solution” for “solution,”, “malodor stock solution.” for “propylene glycol.”\nas §7, §8"}, "[4]": {"assay": "Sensory malodor reduction test, Sniffin' Sticks odor pens, pet malodor", "conditions": "for Average Perceived Malodor Intensity (APMI) / Average Perceived Overall Odor Intensity (APOOI): scale 0-10", "description": "as §1, §2\nPet malodor: 0.5% by weight, in propylene glycol\nas §3, §4, §5, §6\nas §6, with “Compound 1” for “Malodor”, “Compound 1” for “malodor”, “solution” for “solution,”\nas §6, with “Test samples:” for “Malodor only sample:”, “Compound 1” for “malodor”, “solution” for “solution,”, “malodor stock solution.” for “propylene glycol.”\nas §7, §8"}, "[5]": {"assay": "Sensory malodor reduction test, Sniffin' Sticks odor pens, tobacco malodor", "conditions": "for Average Perceived Malodor Intensity (APMI) / Average Perceived Overall Odor Intensity (APOOI): scale 0-10", "description": "as §1\nThe tobacco malodor was prepared by extraction of cigarette debris, comprising: ash; filter; and, paper. The debris from 30 smoked Marlboro lied cigarettes (origin: Philip Morris International) was collected in a 500 ml glass powder jar with a screw closure. 300 ml of ethanol was added. The combination was mixed in a Turbula mixer for 8 hours and then filtered through a Whatman Grade 4 filter paper. The filtrate was used as the tobacco malodor.\nas §2\nTobacco malodor: 50% by weight in propylene glycol\nas §3, §4, §5, §6\nas §6, with “Compound 1” for “Malodor”, “Compound 1” for “malodor”, “solution” for “solution,”\nas §6, with “Test samples:” for “Malodor only sample:”, “Compound 1” for “malodor”, “solution” for “solution,”, “malodor stock solution.” for “propylene glycol.”\nThe samples were assessed by a panel of 19 trained panelists. […]"}, "[6]": {"system": "Morganella morganii URI62", "assay": "MIC test in 96 well plates", "assay_type": "cell-based", "conditions": "M. morganii, associated with urine/bathroom", "description": "(§9) Bacterial solutions of four bacterial strains were prepared for MIC test as follows. Stock cultures stored at -80° C. were subcultured onto agar plate media, and incubated at 37° C. for 24 h to obtain single colonies. Single colonies of the primary cultures were inoculated into broth media and incubated at 37° C., 160 rpm overnight. Aliquots of overnight cultures were inoculated into 50 ml of fresh broth media, and incubated at 37° C., 160 rpm. When the OD reached the target value for each strain (see Table 1), cells were harvested by centrifugation at 5000 rpm for 10 min, and then resuspended in the same fresh broth media at the same volume before the centrifugation. Aliquots (1.1 ml) of each cell suspension were diluted in 200 ml of the same broth media as the bacterial solutions for the MIC test. [table] Sample solutions of casmirone and reference material ([…]) were prepared as follows. Stock solutions of 1% and 20% were prepared in ethanol, and then seven serial dilutions of each stock solution were prepared in ethanol to obtain a total of 16 solutions of casmirone or the reference material. Aliquot (10 μl) of each solution was used for MIC test. The tested final concentrations of each material were 29, 44, 66, 99, 148, 222, 333, 500, 590, 900, 1300, 2000, 3000, 4500, 6700, 10000 ppm. The test material control was trans-hexenal, a known material for MIC tests and control tests (e.g. see Int J Food Microbiol. 2010 January 1;136(3):304-9). MIC test were performed in 96 well plates. […] Column 1 contained bacterial solution only (the positive growth control), and column 12 contained growth media only (the negative growth control). Aliquots (10 μl) of sample solutions were mixed with 190 μl of bacterial solutions in growth media, at concentrations of 10^5 to 10^6 cfu/ml, in wells of the 96 well plates. Three replicates for solution. The 96 wells plates were incubated at 37° C., 160 rpm overnight. After incubation, wells of 96 well plates were examined. Turbid wells were regarded as an indication of microbial growth. Minimal inhibition concentration (MIC) was determined as the lowest concentration where no growth was observed. Average MIC value of the three replicates was calculated against each strain (see Table 3)."}, "[7]": {"system": "Staphylococcus aureus DSMZ 1104", "assay": "MIC test in 96 well plates", "assay_type": "cell-based", "conditions": "S. aureus, associated with hygiene", "description": "as §9"}, "[8]": {"system": "Staphylococcus haemolyticus ATCC 114126", "assay": "MIC test in 96 well plates", "assay_type": "cell-based", "conditions": "S. haemolyticus, associated with body odor", "description": "as §9"}, "[9]": {"system": "Streptococcus agalactiae URI3", "assay": "MIC test in 96 well plates", "assay_type": "cell-based", "conditions": "S. agalactiae, associated with urine/bathroom", "description": "as §9"}, "[10]": {"conditions": "Compound 1 + Malodor vs Malodor Only"}, "[11]": {"conditions": "Compound 1 Only: 0.320 g Compound 1, 1.680 g propylene glycol, bathroom malodor test"}, "[12]": {"conditions": "Compound 1 + Malodor: 0.60 g kitchen malodor, 0.32 g Compound 1, 1.08 g propylene glycol"}, "[13]": {"conditions": "Compound 1 Only: 0.32 g Compound 1, 1.68 g propylene glycol, kitchen malodor test"}, "[14]": {"conditions": "Compound 1 + Malodor: 0.01 g body malodor, 0.32 g Compound 1, 1.67 g propylene glycol"}, "[15]": {"conditions": "Compound 1 Only: 0.32 g Compound 1, 1.68 g propylene glycol, body malodor test"}, "[16]": {"conditions": "Compound 1 + Malodor: 0.01 g pet malodor, 0.32 g Compound 1, 1.67 g propylene glycol"}, "[17]": {"conditions": "Compound 1 Only: 0.32 g Compound 1, 1.68 g propylene glycol, pet malodor test"}, "[18]": {"conditions": "Compound 1 + Malodor: 1.00 g tobacco malodor, 0.32 g Compound 1, 0.68 g propylene glycol"}, "[19]": {"conditions": "Compound 1 Only: 0.32 g Compound 1, 1.68 g propylene glycol, tobacco malodor test"}}, "note": "Marks after values point to notes of the source that are not given here."}
{"smiles": "O=C1CCC=CCCC=CCCC1", "note": "[Compound 1, 4,8-cyclododecadien-1-one]", "values": [{"measurement": "reducing the perceived intensity of bathroom malodor", "setting": "[1]; [10]", "value": "efficient"}, {"measurement": "Average Perceived Overall Odor Intensity (APOOI)", "setting": "[1]; Compound 1 + Malodor: 0.006 g bathroom malodor, 0.320 g Compound 1, 1.674 g propylene glycol", "value": 5.99}, {"measurement": "Average Perceived Malodor Intensity (APMI)", "setting": "[1]; Compound 1 + Malodor: 0.006 g bathroom malodor, 0.320 g Compound 1, 1.674 g propylene glycol, 19 panelists", "value": "1.61 *"}, {"measurement": "Average Perceived Malodor Intensity (APMI)", "setting": "[1]; [11]", "value": "0.91 *"}, {"measurement": "Average Perceived Overall Odor Intensity (APOOI)", "setting": "[1]; [11]", "value": 5.75}, {"measurement": "reducing the perceived intensity of kitchen malodor", "setting": "[2]; [10]", "value": "efficient"}, {"measurement": "Average Perceived Malodor Intensity (APMI)", "setting": "[2]; [12]", "value": "2.49 *"}, {"measurement": "Average Perceived Overall Odor Intensity (APOOI)", "setting": "[2]; [12]", "value": 5.51}, {"measurement": "Average Perceived Malodor Intensity (APMI)", "setting": "[2]; [13]", "value": "0.95 *"}, {"measurement": "Average Perceived Overall Odor Intensity (APOOI)", "setting": "[2]; [13]", "value": 5.78}, {"measurement": "reducing the perceived intensity of body malodor", "setting": "[3]; [10]", "value": "efficient"}, {"measurement": "Average Perceived Malodor Intensity (APMI)", "setting": "[3]; [14]", "value": "2.78 *"}, {"measurement": "Average Perceived Overall Odor Intensity (APOOI)", "setting": "[3]; [14]", "value": 5.61}, {"measurement": "Average Perceived Malodor Intensity (APMI)", "setting": "[3]; [15]", "value": "0.83 *"}, {"measurement": "Average Perceived Overall Odor Intensity (APOOI)", "setting": "[3]; [15]", "value": 6.39}, {"measurement": "reducing the perceived intensity of pet malodor", "setting": "[4]; [10]", "value": "efficient"}, {"measurement": "Average Perceived Malodor Intensity (APMI)", "setting": "[4]; [16]", "value": "4.84 *"}, {"measurement": "Average Perceived Overall Odor Intensity (APOOI)", "setting": "[4]; [16]", "value": 6.70}, {"measurement": "Average Perceived Malodor Intensity (APMI)", "setting": "[4]; [17]", "value": "0.93 *"}, {"measurement": "Average Perceived Overall Odor Intensity (APOOI)", "setting": "[4]; [17]", "value": 6.01}, {"measurement": "reducing the perceived intensity of tobacco malodor", "setting": "[5]; [10]", "value": "efficient"}, {"measurement": "Average Perceived Malodor Intensity (APMI)", "setting": "[5]; [18]", "value": "3.35 *"}, {"measurement": "Average Perceived Overall Odor Intensity (APOOI)", "setting": "[5]; [18]", "value": 5.85}, {"measurement": "Average Perceived Malodor Intensity (APMI)", "setting": "[5]; [19]", "value": "1.27 *"}, {"measurement": "Average Perceived Overall Odor Intensity (APOOI)", "setting": "[5]; [19]", "value": 6.07}, {"measurement": "activity in application", "setting": "[6]", "value": "(compound 1 is efficiently active in application)"}, {"measurement": "MIC", "setting": "[6]; Morganella morganii, URI62, average of three replicates, 37° C. overnight", "value": 900, "unit": "µg/mL"}, {"measurement": "activity in application", "setting": "[7]", "value": "(compound 1 is efficiently active in application)"}, {"measurement": "MIC", "setting": "[7]; Staphylococcus aureus, DSMZ1104, average of three replicates, 37° C. overnight", "value": 333, "unit": "µg/mL"}, {"measurement": "activity in application", "setting": "[8]", "value": "(compound 1 is efficiently active in application)"}, {"measurement": "MIC", "setting": "[8]; Staphylococcus haemolyticus, ATCC114126, average of three replicates, 37° C. overnight", "value": 345, "unit": "µg/mL"}, {"measurement": "activity in application", "setting": "[9]", "value": "(compound 1 is moderately active in application)"}, {"measurement": "MIC", "setting": "[9]; Streptococcus agalactiae, URI3, average of three replicates, 37° C. overnight", "value": 3430, "unit": "µg/mL"}]}
